Experimental data taken from patent publication US7786141B2 (Vertex Pharmaceuticals Incorporated, priority 2004, dated 2010).
pEC50: −log10 of the molar value. Read-outs that look alike come from different tables or passages of the source.

Assays:
[1] = target: T1, M4 muscarinic receptor (Homo sapiens, UniProt P08173); experiment: Functional mobilization of intracellular calcium (FLIPR) in M4-CHO cells; type: cell-based
T1 construct: expressed in transfected cells; host or cells: CHO (M4-CHO)
T1 sequence (P08173 1-479): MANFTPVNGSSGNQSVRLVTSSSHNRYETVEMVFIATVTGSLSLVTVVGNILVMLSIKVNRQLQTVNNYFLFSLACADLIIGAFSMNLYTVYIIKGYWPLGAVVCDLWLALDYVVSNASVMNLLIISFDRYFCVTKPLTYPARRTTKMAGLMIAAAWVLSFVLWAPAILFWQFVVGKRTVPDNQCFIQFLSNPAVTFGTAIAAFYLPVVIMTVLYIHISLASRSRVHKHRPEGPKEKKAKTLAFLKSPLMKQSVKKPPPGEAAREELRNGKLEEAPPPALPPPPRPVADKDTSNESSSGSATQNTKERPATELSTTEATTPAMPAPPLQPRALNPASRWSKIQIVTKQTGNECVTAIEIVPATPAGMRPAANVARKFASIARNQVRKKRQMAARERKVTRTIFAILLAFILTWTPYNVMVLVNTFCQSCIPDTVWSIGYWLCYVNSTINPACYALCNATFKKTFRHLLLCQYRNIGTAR
Procedure: (§1) Functional Mobilization of Intracellular Calcium to Determine Muscarinic Receptor Activity:
(§2) CHO cells expressing muscarinic receptors (M1 to M5) are grown as monolayers in tissue culture flasks at 37° C. in a humidified atmosphere containing 5% CO2 and passaged every 3-5 days. The growth media is Dulbecco's modified eagles medium (DMEM, Gibco Cat# 12430-054), containing 25 mM Hepes and supplemented with Fetal Bovine Serum (Hyclone, cat# SH30071.03), 0.1 mM of MEM non-essential amino acids (GIBCO, Cat# 11140-050), 1 mM MEM Sodium Pyruvate (GIBCO Cat# 11360-070) and 100 units/ml of Penicillin G and 100 μg/ml of Streptomycin (GIBCO Cat# 15140-122). The recombinant muscarinic receptor cell lines are grown under antibiotic pressure with media containing 25 μg/ml zeocin and 500 μg/ml G418 (M1-CHO), 4 μg/ml puromycin, 50 μg/ml zeocin and 2.5 μg/ml blasticidin (M2 and M4-CHO) or 50 μg/ml zeocin and 4 μg/ml puromycin (M3 and M5-CHO).
(§3) Cells are harvested at 80-90% confluence using Versene (GIBCO Cat# 15040-066), collected by centrifugation and seeded 18-24 hrs prior to running the calcium assay at a density of 5,000 cells/well in back-walled, clear-bottomed 384-well plates (BD Biocoat, poly-D-lysine, Cat#356663). The day of the experiment, the cells are washed with a plate washer (Bioteck Instruments, ELX 405) using bath 1 buffer (140-mM NaCl, 4.5-mM KCl, 2-mM CaCl2, 1-mM MgCl2, 10-mM Hepes-Na, 10-mM Glucose, pH 7.4, with NaOH) containing 1 mM Probenecid. Next, the calcium dye Fluo-3 (25 μl/well of Fluo-3 AM at 4 μM, Molecular Probes F-1241, in Bath 1 buffer containing 1 mM Probenecid) is added to the 25 μl of Bath 1 remaining in each well after the plate wash and the dye is loaded at 37° C. in the tissue culture incubator for 60-90 min. The fluorescent dye is removed using the plate washer with Bath 1 containing 1 mM Probenecid, leaving 25 μl/well of this solution after the wash. Alternatively, cells can be loaded with the calcium indicator from Molecular Devices (Calcium 3 Assay Reagents, Cat # R7181) adding 5 μl of a 5× solution dye in Bath 1 containing 1 mM Probenecid (10 ml per dye flask cat# R7182 to generate a solution 20×) to 20 μl of the same buffer. After loading for 60 min, the experiment can be run without having to remove the dye.
(§4) Compounds are prepared at a 2× fold concentration in a 96-well plate (round bottom, Costar Corning cat# 3656), by reconstituting the pre-spotted compounds in bath 1 containing 1 mM probenecid. The final concentration DMSO is 0.5%, and the amount of DMSO is normalized across the assay plate. To determine an agonist action of the compounds on muscarinic receptors, the reconstituted compounds are added (25 μl compound/well) to the cell assay plate (containing 25 μl/well) using the multi-channel robotic system of the FLIPR 3 Instrument (Molecular Devices, Sunnyvale, Calif.). To determine a functional inhibitory action of the compounds on muscarinic receptors, the reconstituted compounds are added (25 μl compound/well) to the assay plate and pre-incubated for 15 min prior to adding 25 μl of Carbachol at 3× the EC80 for each muscarinic subtype. Alternatively, the compounds can be co-applied simultaneously with the agonist. In both assay modes, the fluorescence is recorded for 60 sec (excitation wavelength is […] and emission wavelength 540 nm) using the FLIPR 3 instrument.
(§5) The potency, efficacy and selectivity of the muscarinic compounds were evaluated by screening the compound activity across the whole family (M1 to M5 cells). Compounds were also screened for activity on other proteins such as other GPCRs and ion channels to determine selectivity on M4 receptors.

[2] = target: T2, M1 muscarinic receptor (Homo sapiens, UniProt P11229); experiment: Functional mobilization of intracellular calcium (FLIPR) in M1-CHO cells; type: cell-based
T2 construct: expressed in transfected cells; host or cells: CHO (M1-CHO)
T2 sequence (P11229 1-460): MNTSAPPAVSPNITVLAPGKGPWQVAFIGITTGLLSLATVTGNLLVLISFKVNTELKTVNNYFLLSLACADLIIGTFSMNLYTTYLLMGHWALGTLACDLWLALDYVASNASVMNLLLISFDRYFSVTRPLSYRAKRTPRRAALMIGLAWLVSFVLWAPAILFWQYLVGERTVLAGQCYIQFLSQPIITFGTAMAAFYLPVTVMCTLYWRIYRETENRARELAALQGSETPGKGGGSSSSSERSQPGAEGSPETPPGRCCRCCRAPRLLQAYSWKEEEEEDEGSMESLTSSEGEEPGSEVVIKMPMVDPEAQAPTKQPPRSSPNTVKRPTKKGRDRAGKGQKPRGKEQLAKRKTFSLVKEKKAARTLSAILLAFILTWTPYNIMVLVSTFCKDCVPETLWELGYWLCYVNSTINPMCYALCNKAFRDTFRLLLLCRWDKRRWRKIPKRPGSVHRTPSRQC
Procedure: as §1, §2, §3, §4, §5

[3] = Table 4, 100% efficacy is the maximum response obtained with the Carbachol control
[4] = Table 4, M4 receptor, calcium mobilization (FLIPR)
[5] = Table 4, M1 receptor, calcium mobilization (FLIPR)
[6] = M4 receptor, calcium mobilization
[7] = M4 receptor, calcium mobilization, read-out: M4 Efficacy
[8] = M1 receptor, calcium mobilization
[9] = M1 receptor, calcium mobilization, read-out: M1 Efficacy
[10] = M4-CHO cells, calcium mobilization (FLIPR)
[11] = M1-CHO cells, calcium mobilization (FLIPR)
[12] = Table 4, modulating M4 receptor
[13] = Table 4, modulating M1 receptor

Structure (SMILES)	M4 Activity [1, 6]	Emax [1, 7]	M1 Activity [2, 8]	Emax [2, 9]	other results
CCOC(=O)N1CCC(N2CCC3(CC2)CN(c2cncnc2)c2ccc(F)cc23)CC1 [compound 855]					Emax [1, 3]: 25 to 100%; M4 Activity [1, 4]: xxx (activity was measured to be less than 2.0 μM); Emax [2, 3]: 25 to 100%; M1 Activity [2, 5]: xxx (activity was measured to be less than 2.0 μM)
CCOC(=O)N1CCC(N2CCC3(CC2)CN(C(=O)C(C)C)c2ccc(F)cc23)CC1 [compound 142]	x (activity was measured to be greater than 1.0 μM)	> 85%	xxx (activity was measured to be less than 0.1 μM)	65 to 85%	
CC(=O)NC1CC2(CCN(C[C@@H]3C[C@H]4C=C[C@H]3C4)CC2)c2ccccc21 (stereo partly shown) [compound 421]					pEC50 [1, 10]: < 6.00; M4 Efficacy [1, 10]: x (efficacy was calculated to be less than 65%); pEC50 [2, 11]: < 6.00; M1 Efficacy [2, 11]: x (efficacy was calculated to be less than 65%)
Clc1ccc2c(c1)C1(CCN([C@H]3C[C@@H]4CC[C@H]3C4)CC1)CO2 [compound 181]	x (activity was measured to be greater than 1.0 μM)	65 to 85%	xx (activity was measured to be between 0.1 μM and 1.0 μM)	65 to 85%	
O=C(OC1CCCC1)N1C2CCC1CC(N1CCC3(CCc4ccccc43)CC1)C2 (stereo not shown) [compound 258]	x (activity was measured to be greater than 1.0 μM)	< 65%	x (activity was measured to be greater than 1.0 μM)	65 to 85%	
Cc1cc(C(=O)N2CC3(CCN(C4CC5CCC(C4)N5C(=O)O[C@H]4CCOC4)CC3)c3cc(F)ccc32)nn1C (stereo partly shown) [compound 411]					pEC50 [1, 10]: 6.00 to 7.00; Emax ([1]; M4-CHO cells, calcium mobilization (FLIPR), read-out: M4 Efficacy): < 65%; pEC50 [2, 11]: > 7.00; Emax ([2]; M1-CHO cells, calcium mobilization (FLIPR), read-out: M1 Efficacy): < 65%
Cc1ccc2c(c1)/C(=N/O)CC21CCN(CC2C[C@H]3CCC2C3)CC1 (stereo partly shown) [compound 935]					Emax [1, 3]: 25 to 100%; M4 Activity [1, 4]: xxx (activity was measured to be less than 2.0 μM); Emax [2, 3]: 25 to 100%; M1 Activity [2, 5]: x (activity was measured to be greater than 5.0 μM)
CCCCOC(=O)N1C2CCC1CC(N1CCC3(CC1)COc1ccc(F)cc13)C2 (stereo not shown) [compound 286]	x (activity was measured to be greater than 1.0 μM)	< 65%	xx (activity was measured to be between 0.1 μM and 1.0 μM)	< 65%	
O=C(OCC(F)(F)F)N1C2CCC1CC(N1CCC3(CC1)COc1ccc(F)cc13)C2 (stereo not shown) [compound 124]	xx (activity was measured to be between 0.1 μM and 1.0 μM)	< 65%	xxx (activity was measured to be less than 0.1 μM)	< 65%	
COc1ccc([C@@H](C)N[C@H]2CC3(CCN(CC4CC5C=CC4C5)CC3)c3cc(Cl)ccc32)cc1 (stereo partly shown) [compound 569]					Emax [1, 3]: 25 to 100%; M4 Activity [1, 12]: xx (activity was measured to be between 2.0 μM and 5.0 μM); Emax [2, 3]: 25 to 100%; M1 Activity [2, 13]: xx (activity was measured to be between 2.0 μM and 5.0 μM)
CCOC(=O)N1C2CCC1CC(N1CCC3(CC1)CN(C(C)=O)c1c(F)cccc13)C2 (stereo not shown) [compound 322]	xxx (activity was measured to be less than 0.1 μM)	> 85%	xx (activity was measured to be between 0.1 μM and 1.0 μM)	< 65%	
CN(C)C(=O)N1CC2(CCN(C3CC4CCC(C3)N4C(=O)OCCF)CC2)c2cc(F)ccc21 (stereo not shown) [compound 32]	xxx (activity was measured to be less than 0.1 μM)	65 to 85%	xxx (activity was measured to be less than 0.1 μM)	> 85%	
CCOC(=O)N1CCC(N2CCC3(CC2)CN(C2CCC(=O)CC2)c2ccccc23)CC1 [compound 472]					Emax [1, 3]: 25 to 100%; M4 Activity [1, 12]: xxx (activity was measured to be less than 2.0 μM); Emax [2, 3]: > 100%; M1 Activity [2, 13]: xxx (activity was measured to be less than 2.0 μM)
CCOC(=O)N1CCC(N2CCC3(CC2)CN(CCC(=O)CC)c2ccc(F)cc23)CC1 [compound 229]	xxx (activity was measured to be less than 0.1 μM)	> 85%	xx (activity was measured to be between 0.1 μM and 1.0 μM)	< 65%	
CCOC(=O)N1CCC(N2CCC3(CC2)CN(C(=O)c2ccccc2OC)c2ccc(F)cc23)CC1 [compound 262]	x (activity was measured to be greater than 1.0 μM)	< 65%	x (activity was measured to be greater than 1.0 μM)	< 65%	
O=C(C1CCC1)N1CC2(CCN(C3CC4CCC(C3)N4C(=O)O[C@@H]3CCOC3)CC2)c2cc(F)ccc21 (stereo partly shown) [compound 69]	xx (activity was measured to be between 0.1 μM and 1.0 μM)	< 65%	xx (activity was measured to be between 0.1 μM and 1.0 μM)	< 65%	
